Laboratory results published in ChEMBL document CHEMBL3352660, “Design, synthesis and pharmacological evaluation of novel polycyclic heteroarene ethers as PDE10A inhibitors: part II” (Bioorg Med Chem Lett, 2014).

Tests used:
[1] = target: cGMP-specific 3',5'-cyclic phosphodiesterase (Homo sapiens) (UniProt O76074); assay: Inhibition of human recombinant PDE5A using […] as substrate at 1 uM after 30 mins by scintillation proximity assay
[2] = Metabolic stability in cynomolgus monkey liver microsomes incubated for 10 mins prior to NADPH addition measured after 60 mins by LC/MS/MS analysis; assay type: ADME, Macaca fascicularis; conditions: read-out: Stability
[3] = target: cGMP-inhibited 3',5'-cyclic phosphodiesterase 3A (Homo sapiens) (UniProt Q14432); assay: Inhibition of human recombinant PDE3A using cAMP as substrate at 1 uM after 30 mins by HTRF method
[4] = target: cGMP-inhibited 3',5'-cyclic phosphodiesterase 3A (Homo sapiens) (UniProt Q14432); assay: Inhibition of human recombinant PDE3A using cAMP as substrate at 10 uM after 30 mins by HTRF method
[5] = target: High affinity 3',5'-cyclic-AMP phosphodiesterase 7A (Homo sapiens) (UniProt Q13946); assay: Inhibition of human recombinant PDE7A using [3H]-cAMP as substrate at 1 uM after 30 mins by two-step radiometric assay
[6] = target: High affinity 3',5'-cyclic-AMP phosphodiesterase 7A (Homo sapiens) (UniProt Q13946); assay: Inhibition of human recombinant PDE7A using [3H]-cAMP as substrate at 10 uM after 30 mins by two-step radiometric assay
[7] = Metabolic stability in CD1 mouse liver microsomes incubated for 10 mins prior to NADPH addition measured after 60 mins by LC/MS/MS analysis; assay type: ADME; conditions: read-out: Stability
[8] = Metabolic stability in Wistar rat liver microsomes incubated for 10 mins prior to NADPH addition measured after 60 mins by LC/MS/MS analysis; assay type: ADME; conditions: read-out: Stability
[9] = target: 3',5'-cyclic-AMP phosphodiesterase 4D (Homo sapiens) (UniProt Q08499); assay: Inhibition of human recombinant PDE4D using [3H]-cAMP as substrate at 10 uM after 30 mins by two-step radiometric assay
[10] = Metabolic stability in Beagle dog liver microsomes incubated for 10 mins prior to NADPH addition measured after 60 mins by LC/MS/MS analysis; assay type: ADME, Canis lupus familiaris; conditions: read-out: Stability
[11] = target: Dual 3',5'-cyclic-AMP and -GMP phosphodiesterase 11A (Homo sapiens) (UniProt Q9HCR9); assay: Inhibition of human recombinant PDE11A using [3H]-cAMP as substrate at 1 uM after 30 mins by two-step radiometric assay
[12] = target: T1, cAMP and cAMP-inhibited cGMP 3',5'-cyclic phosphodiesterase 10A (Homo sapiens, UniProt Q9Y233); assay: Inhibition of human recombinant GST-tagged PDE10A using [3H]-cAMP as substrate after 30 mins by scintillation proximity assay
[13] = target: cGMP-specific 3',5'-cyclic phosphodiesterase (Homo sapiens) (UniProt O76074); assay: Inhibition of human recombinant PDE5A using […] as substrate at 10 uM after 30 mins by scintillation proximity assay
[14] = target: T2, cAMP and cAMP-inhibited cGMP 3',5'-cyclic phosphodiesterase 10A (Rattus norvegicus, UniProt Q9QYJ6); assay: Inhibition of rat recombinant GST-tagged PDE10A using [3H]-cAMP as substrate by scintillation proximity assay
T2 sequence (Q9QYJ6 whole entry): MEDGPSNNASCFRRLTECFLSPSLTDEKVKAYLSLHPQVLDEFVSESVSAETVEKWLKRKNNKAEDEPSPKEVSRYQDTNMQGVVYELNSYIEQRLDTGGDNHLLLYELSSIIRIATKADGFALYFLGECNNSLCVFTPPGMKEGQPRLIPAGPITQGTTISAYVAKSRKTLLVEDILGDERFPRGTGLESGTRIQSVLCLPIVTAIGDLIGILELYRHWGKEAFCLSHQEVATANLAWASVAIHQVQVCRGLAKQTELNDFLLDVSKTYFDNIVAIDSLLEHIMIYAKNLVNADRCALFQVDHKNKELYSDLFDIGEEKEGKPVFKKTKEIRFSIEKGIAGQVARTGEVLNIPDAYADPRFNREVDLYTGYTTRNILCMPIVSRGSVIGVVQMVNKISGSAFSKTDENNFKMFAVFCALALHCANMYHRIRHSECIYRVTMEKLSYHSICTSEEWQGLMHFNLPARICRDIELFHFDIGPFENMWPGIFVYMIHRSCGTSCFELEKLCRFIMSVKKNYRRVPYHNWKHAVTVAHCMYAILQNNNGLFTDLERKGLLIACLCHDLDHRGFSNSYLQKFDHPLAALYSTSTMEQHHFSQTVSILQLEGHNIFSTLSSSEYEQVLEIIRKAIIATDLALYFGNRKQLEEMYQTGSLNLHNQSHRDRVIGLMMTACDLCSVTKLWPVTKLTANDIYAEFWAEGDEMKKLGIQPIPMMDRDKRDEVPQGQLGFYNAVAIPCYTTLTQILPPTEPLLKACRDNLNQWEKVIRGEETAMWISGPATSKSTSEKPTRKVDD

[15] = target: 3',5'-cyclic-AMP phosphodiesterase 4D (Homo sapiens) (UniProt Q08499); assay: Inhibition of human recombinant PDE4D using [3H]-cAMP as substrate at 1 uM after 30 mins by two-step radiometric assay
[16] = target: cGMP-dependent 3',5'-cyclic phosphodiesterase (Homo sapiens) (UniProt O00408); assay: Inhibition of human recombinant PDE2A using cAMP as substrate at 10 uM after 30 mins by HTRF method
[17] = target: T1, cAMP and cAMP-inhibited cGMP 3',5'-cyclic phosphodiesterase 10A; assay: Inhibition of human recombinant GST-tagged PDE10A using [3H]-cAMP as substrate at 1 uM after 30 mins by scintillation proximity assay
[18] = target: cGMP-dependent 3',5'-cyclic phosphodiesterase (Homo sapiens) (UniProt O00408); assay: Inhibition of human recombinant PDE2A using cAMP as substrate at 1 uM after 30 mins by HTRF method
[19] = target: Dual 3',5'-cyclic-AMP and -GMP phosphodiesterase 11A (Homo sapiens) (UniProt Q9HCR9); assay: Inhibition of human recombinant PDE11A using [3H]-cAMP as substrate at 10 uM after 30 mins by two-step radiometric assay
[20] = Metabolic stability in human liver microsomes incubated for 10 mins prior to NADPH addition measured after 60 mins by LC/MS/MS analysis; assay type: ADME; conditions: read-out: Stability
[21] = target: T3, cAMP and cAMP-inhibited cGMP 3',5'-cyclic phosphodiesterase 10A (Mus musculus, UniProt Q8CA95); assay: Inhibition of mouse recombinant GST-tagged PDE10A using [3H]-cAMP as substrate after 30 mins by scintillation proximity assay
T3 sequence (Q8CA95 whole entry): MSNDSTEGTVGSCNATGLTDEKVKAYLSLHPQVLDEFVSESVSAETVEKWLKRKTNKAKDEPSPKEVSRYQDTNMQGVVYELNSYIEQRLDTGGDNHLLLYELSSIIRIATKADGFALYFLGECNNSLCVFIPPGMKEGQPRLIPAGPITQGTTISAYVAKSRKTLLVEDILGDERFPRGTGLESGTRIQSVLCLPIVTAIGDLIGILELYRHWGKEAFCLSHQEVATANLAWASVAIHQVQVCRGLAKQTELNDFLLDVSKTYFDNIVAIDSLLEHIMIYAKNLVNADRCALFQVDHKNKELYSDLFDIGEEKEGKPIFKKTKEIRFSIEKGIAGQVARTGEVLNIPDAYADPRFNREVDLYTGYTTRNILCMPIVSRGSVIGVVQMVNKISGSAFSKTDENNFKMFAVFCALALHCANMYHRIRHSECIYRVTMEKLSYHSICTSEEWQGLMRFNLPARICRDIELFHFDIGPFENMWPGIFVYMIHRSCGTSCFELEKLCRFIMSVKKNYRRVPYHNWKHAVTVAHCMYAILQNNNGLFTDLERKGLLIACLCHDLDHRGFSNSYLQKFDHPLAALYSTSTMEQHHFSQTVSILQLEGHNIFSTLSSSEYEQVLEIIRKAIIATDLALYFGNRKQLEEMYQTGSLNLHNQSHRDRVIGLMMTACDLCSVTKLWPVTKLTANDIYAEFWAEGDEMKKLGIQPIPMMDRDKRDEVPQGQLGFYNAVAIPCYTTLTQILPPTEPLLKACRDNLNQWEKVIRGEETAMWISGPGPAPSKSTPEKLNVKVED

cGMP-inhibited 3',5'-cyclic phosphodiesterase 3A (Homo sapiens), sequence (Q14432 whole entry): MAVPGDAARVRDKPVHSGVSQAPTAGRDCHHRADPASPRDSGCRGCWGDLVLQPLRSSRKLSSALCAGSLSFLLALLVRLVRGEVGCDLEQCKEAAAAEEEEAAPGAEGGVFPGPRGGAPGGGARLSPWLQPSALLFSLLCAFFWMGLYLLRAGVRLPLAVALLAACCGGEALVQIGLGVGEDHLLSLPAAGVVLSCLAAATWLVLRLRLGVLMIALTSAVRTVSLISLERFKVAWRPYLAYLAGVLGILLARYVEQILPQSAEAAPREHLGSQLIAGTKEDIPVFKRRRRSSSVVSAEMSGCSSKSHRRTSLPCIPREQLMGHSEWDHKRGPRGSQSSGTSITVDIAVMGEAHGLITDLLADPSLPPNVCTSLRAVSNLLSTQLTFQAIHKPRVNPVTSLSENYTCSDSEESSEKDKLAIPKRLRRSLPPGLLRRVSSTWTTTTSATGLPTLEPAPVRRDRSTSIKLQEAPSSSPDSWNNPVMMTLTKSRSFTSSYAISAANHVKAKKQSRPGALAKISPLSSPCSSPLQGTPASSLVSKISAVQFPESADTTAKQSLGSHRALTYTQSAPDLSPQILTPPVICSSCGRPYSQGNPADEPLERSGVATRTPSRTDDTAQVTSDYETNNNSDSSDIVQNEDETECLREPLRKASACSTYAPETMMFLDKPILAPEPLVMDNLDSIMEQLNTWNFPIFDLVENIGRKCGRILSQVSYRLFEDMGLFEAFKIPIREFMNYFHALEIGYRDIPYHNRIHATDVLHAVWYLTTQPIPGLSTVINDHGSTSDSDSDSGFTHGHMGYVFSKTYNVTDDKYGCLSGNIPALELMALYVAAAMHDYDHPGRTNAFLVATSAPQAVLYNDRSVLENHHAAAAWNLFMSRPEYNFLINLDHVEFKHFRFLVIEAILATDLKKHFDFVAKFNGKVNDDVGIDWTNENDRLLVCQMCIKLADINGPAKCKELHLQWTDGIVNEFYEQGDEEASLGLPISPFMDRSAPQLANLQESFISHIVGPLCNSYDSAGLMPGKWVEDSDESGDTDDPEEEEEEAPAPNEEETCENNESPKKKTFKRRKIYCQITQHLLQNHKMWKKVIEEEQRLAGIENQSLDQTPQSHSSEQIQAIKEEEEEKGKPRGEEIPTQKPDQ
High affinity 3',5'-cyclic-AMP phosphodiesterase 7A (Homo sapiens), sequence (Q13946 whole entry): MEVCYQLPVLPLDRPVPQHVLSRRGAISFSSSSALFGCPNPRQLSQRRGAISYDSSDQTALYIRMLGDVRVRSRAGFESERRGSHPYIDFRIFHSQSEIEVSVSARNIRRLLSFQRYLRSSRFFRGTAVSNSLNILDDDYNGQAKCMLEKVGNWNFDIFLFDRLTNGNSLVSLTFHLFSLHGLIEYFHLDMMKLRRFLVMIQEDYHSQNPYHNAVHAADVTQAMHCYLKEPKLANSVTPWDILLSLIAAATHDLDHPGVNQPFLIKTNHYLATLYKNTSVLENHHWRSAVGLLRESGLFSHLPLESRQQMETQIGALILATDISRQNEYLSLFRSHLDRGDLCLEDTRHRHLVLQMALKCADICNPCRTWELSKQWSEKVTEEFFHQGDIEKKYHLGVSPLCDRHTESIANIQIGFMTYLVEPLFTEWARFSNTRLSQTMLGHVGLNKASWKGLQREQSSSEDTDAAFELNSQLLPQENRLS
3',5'-cyclic-AMP phosphodiesterase 4D (Homo sapiens), sequence (Q08499 whole entry): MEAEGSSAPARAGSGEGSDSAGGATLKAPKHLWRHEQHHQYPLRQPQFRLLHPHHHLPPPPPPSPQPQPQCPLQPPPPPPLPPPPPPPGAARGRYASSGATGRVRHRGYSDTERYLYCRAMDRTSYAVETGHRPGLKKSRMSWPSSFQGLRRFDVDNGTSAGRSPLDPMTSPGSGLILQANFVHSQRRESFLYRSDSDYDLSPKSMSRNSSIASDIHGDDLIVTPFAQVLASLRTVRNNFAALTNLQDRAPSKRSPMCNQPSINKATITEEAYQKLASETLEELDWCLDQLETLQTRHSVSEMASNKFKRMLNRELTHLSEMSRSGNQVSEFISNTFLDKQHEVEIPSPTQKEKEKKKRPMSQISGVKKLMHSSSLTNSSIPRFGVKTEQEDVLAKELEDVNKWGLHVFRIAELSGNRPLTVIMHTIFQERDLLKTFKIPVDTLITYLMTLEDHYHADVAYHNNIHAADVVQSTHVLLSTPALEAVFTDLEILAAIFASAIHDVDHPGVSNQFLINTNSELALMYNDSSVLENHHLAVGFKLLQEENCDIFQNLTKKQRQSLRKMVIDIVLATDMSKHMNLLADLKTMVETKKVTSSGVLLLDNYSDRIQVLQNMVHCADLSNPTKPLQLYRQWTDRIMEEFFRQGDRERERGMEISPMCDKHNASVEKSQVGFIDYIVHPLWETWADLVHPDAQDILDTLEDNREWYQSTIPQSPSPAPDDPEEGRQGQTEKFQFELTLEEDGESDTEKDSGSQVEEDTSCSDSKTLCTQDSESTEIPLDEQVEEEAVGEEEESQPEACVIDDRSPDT
Dual 3',5'-cyclic-AMP and -GMP phosphodiesterase 11A (Homo sapiens), sequence (Q9HCR9 whole entry, looked up): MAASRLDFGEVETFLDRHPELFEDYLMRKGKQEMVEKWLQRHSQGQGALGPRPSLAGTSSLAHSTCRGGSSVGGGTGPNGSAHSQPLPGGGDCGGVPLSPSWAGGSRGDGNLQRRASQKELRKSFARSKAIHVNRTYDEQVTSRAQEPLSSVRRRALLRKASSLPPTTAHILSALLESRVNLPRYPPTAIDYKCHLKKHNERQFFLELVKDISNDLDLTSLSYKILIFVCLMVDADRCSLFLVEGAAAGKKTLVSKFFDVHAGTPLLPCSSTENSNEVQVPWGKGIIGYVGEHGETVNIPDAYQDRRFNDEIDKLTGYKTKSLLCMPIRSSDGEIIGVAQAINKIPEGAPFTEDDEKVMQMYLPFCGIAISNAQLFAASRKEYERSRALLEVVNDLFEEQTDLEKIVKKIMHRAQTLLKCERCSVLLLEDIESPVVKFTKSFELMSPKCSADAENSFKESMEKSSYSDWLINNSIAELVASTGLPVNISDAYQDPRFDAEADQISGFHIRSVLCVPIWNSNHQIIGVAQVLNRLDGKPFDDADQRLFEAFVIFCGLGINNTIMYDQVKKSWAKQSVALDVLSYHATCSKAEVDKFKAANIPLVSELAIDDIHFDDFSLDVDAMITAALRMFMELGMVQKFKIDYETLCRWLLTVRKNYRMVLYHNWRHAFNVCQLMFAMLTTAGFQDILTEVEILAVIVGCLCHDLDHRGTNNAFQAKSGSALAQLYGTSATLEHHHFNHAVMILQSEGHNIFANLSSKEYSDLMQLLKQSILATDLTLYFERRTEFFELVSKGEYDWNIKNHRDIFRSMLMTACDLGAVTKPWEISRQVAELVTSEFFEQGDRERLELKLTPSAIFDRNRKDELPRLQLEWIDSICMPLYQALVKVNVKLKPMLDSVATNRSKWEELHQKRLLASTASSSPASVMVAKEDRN
T1 sequence (Q9Y233 whole entry): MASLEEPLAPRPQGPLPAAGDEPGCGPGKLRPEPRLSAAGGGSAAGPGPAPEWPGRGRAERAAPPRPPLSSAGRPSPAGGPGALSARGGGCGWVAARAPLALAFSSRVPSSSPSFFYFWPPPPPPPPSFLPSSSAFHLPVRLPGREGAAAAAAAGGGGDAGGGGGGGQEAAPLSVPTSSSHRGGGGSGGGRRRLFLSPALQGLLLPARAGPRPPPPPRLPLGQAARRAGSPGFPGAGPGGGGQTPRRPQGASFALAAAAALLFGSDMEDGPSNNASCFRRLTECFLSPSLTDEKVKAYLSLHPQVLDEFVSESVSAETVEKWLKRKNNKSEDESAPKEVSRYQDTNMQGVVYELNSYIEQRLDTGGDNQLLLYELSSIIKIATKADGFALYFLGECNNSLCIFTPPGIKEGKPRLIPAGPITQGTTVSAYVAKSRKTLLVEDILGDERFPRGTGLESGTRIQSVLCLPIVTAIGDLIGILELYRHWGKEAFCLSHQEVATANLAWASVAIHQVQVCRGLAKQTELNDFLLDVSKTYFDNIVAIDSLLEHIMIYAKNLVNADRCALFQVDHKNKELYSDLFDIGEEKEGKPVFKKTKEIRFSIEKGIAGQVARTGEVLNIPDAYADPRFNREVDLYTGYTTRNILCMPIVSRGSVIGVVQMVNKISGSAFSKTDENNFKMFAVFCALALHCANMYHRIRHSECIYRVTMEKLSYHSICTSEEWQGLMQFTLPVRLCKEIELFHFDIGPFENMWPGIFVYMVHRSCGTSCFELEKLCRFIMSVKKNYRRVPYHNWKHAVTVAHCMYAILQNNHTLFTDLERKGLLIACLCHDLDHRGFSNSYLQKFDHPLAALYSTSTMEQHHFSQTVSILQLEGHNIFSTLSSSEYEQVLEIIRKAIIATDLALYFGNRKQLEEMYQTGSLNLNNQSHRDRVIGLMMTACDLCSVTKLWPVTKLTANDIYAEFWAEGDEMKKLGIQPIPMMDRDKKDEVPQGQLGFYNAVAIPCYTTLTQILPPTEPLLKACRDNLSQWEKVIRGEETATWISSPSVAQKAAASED

Row | Compound | inhibition [1] | remaining at 1 h [2] | inhibition [3] | inhibition [4] | inhibition [5] | inhibition [6] | remaining at 1 h [7] | remaining at 1 h [8] | inhibition [9] | remaining at 1 h [10] | inhibition [11] | IC50 [12] | inhibition [13] | IC50 [14] | inhibition [15] | inhibition [16] | inhibition [17] | inhibition [18] | inhibition [19] | remaining at 1 h [20] | other results
1 | Cn1cc(-c2cccc(Oc3nccc(N4CCOCC4)n3)c2)c2nc3ccccc3cc21 | 16% | 0.6% | 0.3% | 21.5% | 5.8% | 19.5% | 0.6% | 0.4% | 1% | 1.3% | 44.6% | 29.2 nM | 33.3% | 167 nM | 5.6% | 76.2% | 93.1% | 15.7% | 76.3% | 8.2% | 
2 | Cn1cc(-c2cccc(Oc3nccnc3-c3cncnc3)c2)c2nc3ccccc3cc21 |  |  |  |  |  |  |  |  |  |  |  | 267 nM |  | 1450 nM |  |  | 76.3% |  |  |  | 
3 | Cn1cc(-c2cccc(Oc3nccc(-c4cncnc4)n3)c2)c2nc3ccccc3cc21 | 1.5% | 4.5% | 1.1% | 4.8% | 4.5% | 14% | 3.9% | 44.7% | 57% | 40.3% | 24.4% | 18.2 nM | 23.6% | 90.3 nM | 4.2% | 38.5% | 95% | 11.4% | 43.8% | 39.8% | 
4 | Cn1cc(-c2ccc(Oc3ncccc3-c3ccncc3)cc2)c2ncccc21 | 2.2% | 39.8% | 0.1% | 7.4% | 5% | 39.9% | 40.2% | 38.4% | 18% | 39.7% | 3% | 1.3 nM | 23.2% | 5.8 nM | 0.9% | 69.6% | 98% | 16.6% | 29% | 59.6% | IC50 [21]: 4.1 nM
5 | Cn1cc(-c2ccc(Oc3nccc(-c4cncnc4)n3)cc2)c2nc3ccccc3cc21 |  |  |  |  |  |  |  |  |  |  |  | 128 nM |  |  |  |  | 85.3% |  |  |  | 
6 | Cn1cc(-c2cccc(Oc3nccc(-c4cn[nH]c4)n3)c2)c2nc3ccccc3cc21 | 8.2% | 38.1% | 4.5% | 27.5% | 16.7% | 27.2% | 60.4% | 17.3% | 34.7% | 52% | 27.3% | 20.9 nM | 19% | 122 nM | 7.9% | 40.8% | 89.3% | 16.1% | 38.5% | 75.4% | 
7 | Cn1cc(C2=CCC(Oc3nccnc3-c3cncnc3)CC2)c2ncccc21 (stereo unspecified) |  | 0% |  |  |  |  | 8.5% | 5.9% |  | 43.3% |  | 136 nM |  | 552 nM |  |  | 78% |  |  | 12.2% | 
8 | Cn1cc(-c2ccc(Oc3nccnc3-c3ccc(F)cc3)cc2)c2nc3ccccc3cc21 |  |  |  |  |  |  |  |  |  |  |  | 177 nM |  |  |  |  | 76.9% |  |  |  | 
9 | Cn1cc(-c2cccc(Oc3nccc(-c4ccc(F)cc4)n3)c2)c2nc3ccccc3cc21 |  |  |  |  |  |  |  |  |  |  |  | 116 nM |  |  |  |  | 76.3% |  |  |  | 
10 | Cn1cc(C2CCC(Oc3nccnc3-c3cncnc3)CC2)c2ncccc21 (stereo unspecified) |  | 0% |  |  |  |  | 50.3% | 72.5% |  | 68.6% |  | 552 nM |  | 372 nM |  |  | 68.9% |  |  | 48.8% | 
11 | Cn1cc(-c2ccc(Oc3nccnc3-c3cncnc3)cc2)c2nc3ccccc3cc21 | 9.4% | 68.3% | 0.3% | 9.4% | 6% | 20.2% | 76.1% | 83.1% | 19.5% | 77% | 3.3% | 19.1 nM | 17.3% | 31.1 nM | 1.3% | 14.2% | 94.8% | 8.9% | 21.8% | 85.2% | 
12 | COc1ccc(-c2nccnc2Oc2ccc(-c3cn(C)c4cc5ccccc5nc34)cc2)cc1 |  |  |  |  |  |  |  |  |  |  |  | 153 nM |  | 132 nM |  |  | 72.3% |  |  |  | 
13 | Cn1cc(-c2ccc(Oc3nccnc3-c3ccncc3)cc2)c2ncc(Cl)cc21 | 0.1% | 40.7% | 0.7% | 9.8% | 5.9% | 53.1% | 70.5% | 68% | 25.4% | 55.3% | 3.1% | 71 nM | 19.3% | 141 nM | 4.1% | 16.1% | 79.7% | 11.3% | 5.7% | 77% | 
14 | COc1ccc(-c2ccnc(Oc3cccc(-c4cn(C)c5cc6ccccc6nc45)c3)n2)cc1 |  |  |  |  |  |  |  |  |  |  |  | 103 nM |  |  |  |  | 72.4% |  |  |  | 
